The target of one assay is FPR2 (Homo sapiens (Human), UniProt P25090). The assay is described as follows: Agonistic activity (calcium FLIPR) in hFPR2-Aq-CHO cells. The assay is classed as cell-based. As to conditions: FLIPR Calcium 5 dye fluorescence, agonistic response. The procedure: (§1) Cells (hFPR1-Gα15-CHO or hFPR2-Aq-CHO) are suspended in 10 mL of respective complete medium (F12(1×) HAM media; 10% HI-FBS; 0.1 mg/ml Hygromycin B and 0.2 mg/ml Zeocin [for hFPR1 only]; 0.4 mg/mL Geneticin and 0.25 mg/ml Zeocin [for hFPR2-Aq only]) and viability is checked using Trypan Blue exclusion. After washing, the cells are plated at 10,000 cells per well in 40 μL complete medium in a 384-well sterile clear bottom black plate and incubated in a 5% CO2 incubator at 37° C. for 18 hours. Plating media is removed from each well by decanting and gentle tapping before 30 μL of 0.5× Calcium 5 dye solution (0.5×FLIPR Calcium 5 dye (Molecular devices, R8186)); HBSS; 20 mM HEPES; 2.5 mM Probenecid; 0.025% Pluronic F-127; pH adjusted to 7.4) is added to each well and the plate is then incubated at 37° C. for 30 minutes. For the assay the plate is equilibrated at room temperature for 10 minutes before placing it in the FLIPR. Compounds are dissolved in DMSO and serially diluted over an 11 point half log (3.16 fold) dilution (2 mM to 20 nM). Compounds are then diluted 1:50 in assay buffer (HBSS; 20 mM HEPES; 2.5 mM Probenecid; 0.05% gelatin; 0.1% BSA; pH adjusted to 7.4) just before performing the assay. Compounds are finally added to the respective wells of the cell plate (final assay concentration 10 μM to 100 pM) using the FLIPR (e.g. FLIPR-Tetra, Molecular Devices) and fluorescence readings are captured for 5 minutes. The increase in fluorescence from the basal reading in the presence of the compounds is compared with that of the control wells (wells having no compound) to calculate the activity of the compounds. The EC50 values of the compounds can be determined using e.g. Graph pad Prism software.
(§2) Assay Method for Measuring Agonistic Activity of Compounds in hFPR1-Gα15-CHO and hFPR2-Aq-CHO Cell
(§3) Cryo-vial containing 6×10^6 cells (hFPR1-Gα15-CHO or hFPR2-Aq-CHO) was thawed in a 37° C. water bath. Cells were suspended in 10 ml of respective complete growth media (F12(1×) HAM media (Gibco; Cat#11765); 10% HI-FBS (Gibco; Cat#10082); 0.1 mg/ml Hygromycin B (Invitrogen; Cat#10687-010) [for hFPR1 only]; 0.2 mg/ml Zeocin (Invitrogen; Cat#R25001) [for hFPR1 only]; 0.4 mg/ml Geneticin (Gibco; Cat#10131) [for hFPR2-Aq only]; 0.25 mg/ml Zeocin (Invitrogen; Cat#R25001) [for hFPR2-Aq only]) in a 15 ml centrifuge tube. The cell viability was checked with the help of Trypan Blue dye. Upon washing the cells, those were plated in a 384-well sterile clear bottom black plate (Greiner Bioone Cat#781091) so that, each well contained 10,000 cells in 40 μl complete growth media. The plate was incubated in a 5% CO2 incubator at 37° C. for 18 hours.
(§4) Before assay on the next day, the cell plating media was removed from each well of the plate by decanting and gentle tapping. 30 μl, 0.11 of 0.5× Calcium 5 dye solution (0.5×FLIPR Calcium 5 dye (Molecular devices Cat# R8186); HBSS (Invitrogen; Cat#14025); 20 mM HEPES (Sigma; Cat#H0887); 2.5 mM Probenecid (Sigma; Cat#P8761); 0.025% Pluronic F-127 (Sigma; Cat#P2443); pH adjusted to 7.4) was added to each well. The plate was then incubated at 37° C. for 30 minutes. Following which the plate was equilibrated at room temperature for 10 minutes before placing it in a 384 well FLIPR for assay. Compounds were dissolved in DMSO and serially diluted following 11 point half log (3.16 fold) dilution with a starting concentration of 2 mM (Final assay concentration 10 μM). Aliquots of above mentioned each dilution was mixed with assay buffer (HBSS (Invitrogen; Cat#14025); 20 mM HEPES (Sigma; Cat#H0887); 2.5 mM Probenecid (Sigma; Cat#P8761); 0.05% gelatin (Sigma; Cat#G1890); 0.1% BSA (Sigma; Cat#A3059); pH adjusted to 7.4) just before performing the assay. Compounds were added to the respective wells of the assay ready cell plate with the help of the FLIPR (FLIPR Tetra) and fluorescence readings were captured for 5 minutes to measure any agonistic response of the compounds. […]

A further assay concerns the target FPR1 (Homo sapiens (Human), UniProt P21462). Kind of assay: Agonistic activity (calcium FLIPR) in hFPR1-Gα15-CHO cells. The assay is classed as cell-based. As to conditions: FLIPR Calcium 5 dye fluorescence, agonistic response. As to the method:
as §1, §2, §3, §4

Where only a bound is given, the exact number is not on record here.

FPR1, sequence (P21462 whole entry): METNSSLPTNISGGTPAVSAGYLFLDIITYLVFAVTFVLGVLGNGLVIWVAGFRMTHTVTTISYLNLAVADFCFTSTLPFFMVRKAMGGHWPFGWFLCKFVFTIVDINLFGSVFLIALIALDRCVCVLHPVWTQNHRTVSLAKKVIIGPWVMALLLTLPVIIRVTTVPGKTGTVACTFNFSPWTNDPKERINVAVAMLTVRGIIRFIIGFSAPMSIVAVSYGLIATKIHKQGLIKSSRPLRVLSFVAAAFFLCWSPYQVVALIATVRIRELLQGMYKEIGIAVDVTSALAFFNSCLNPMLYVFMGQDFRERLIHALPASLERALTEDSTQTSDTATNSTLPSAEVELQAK
FPR2, sequence (P25090 whole entry): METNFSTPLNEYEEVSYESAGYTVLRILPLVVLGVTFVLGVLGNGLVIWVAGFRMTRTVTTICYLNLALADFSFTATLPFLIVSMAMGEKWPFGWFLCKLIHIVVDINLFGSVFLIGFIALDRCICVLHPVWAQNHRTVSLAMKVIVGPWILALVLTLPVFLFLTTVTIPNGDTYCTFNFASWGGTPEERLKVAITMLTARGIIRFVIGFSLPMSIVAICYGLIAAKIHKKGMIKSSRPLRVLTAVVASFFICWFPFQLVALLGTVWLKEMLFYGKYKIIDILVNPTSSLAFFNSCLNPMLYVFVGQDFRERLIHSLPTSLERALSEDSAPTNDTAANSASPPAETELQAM

For the compound `COc1ccc([C@@H]2CCN(C(C)=O)C[C@H]2NC(=O)Nc2cncnc2)cc1` (racemic) [Example 25, rac-trans-1-(1-acetyl-4-(4-methoxyphenyl)piperidin-3-yl)-3-(pyrimidin-5-yl)urea], the EC50 at FPR2 and at FPR1 was 1 to 1000 nM throughout.

Turning to `COc1ccc([C@@H]2CCN(C(C)=O)C[C@H]2NC(=O)Nc2ccc(C)nc2)cc1` (racemic) [Example 26, rac-trans-1-(1-acetyl-4-(4-methoxyphenyl)piperidin-3-yl)-3-(6-methylpyridin-3-yl)urea], the EC50 at FPR2 and on FPR1 was 1 to 1000 nM each time.

Regarding `COc1ccc([C@@H]2CCN(C(C)=O)C[C@H]2NC(=O)Nc2ccc(C(F)(F)F)nc2)cc1` (racemic) [Example 27, rac-trans-1-(1-acetyl-4-(4-methoxyphenyl)piperidin-3-yl)-3-(6-(trifluoromethyl)pyridin-3-yl)urea], the EC50 at FPR2 and on FPR1 was 1 to 1000 nM throughout.

For the compound `COc1ccc(C2CCN(C(C)=O)C[C@H]2NC(=O)Nc2ccc(C)nc2)cc1` (mixture of isomers) [Example 28, rac-trans-1-(1-acetyl-4-(4-methoxyphenyl)piperidin-3-yl)-3-(6-methylpyridin-3-yl)urea], the EC50 on FPR2 and at FPR1 was 1 to 1000 nM each time.

`COc1cc(F)c([C@@H]2CC(=O)N(CC3CC3)C[C@H]2NC(=O)Nc2ccc(Cl)cc2)c(F)c1` (racemic) [Example 29, rac-trans-1-(4-chlorophenyl)-3-(1-(cyclopropylmethyl)-4-(2,6-difluoro-4-methoxyphenyl)-6-oxopiperidin-3-yl)urea]: the half-maximal effective concentration (EC50) – broadly, the concentration needed to bring the measured effect to its halfway point – on FPR2 is below 1 nM; at FPR1 it was 1 to 1000 nM.

Turning to `COc1ccc([C@@H]2CCN(C(=O)CCO)C[C@H]2NC(=O)Nc2ccc(Cl)cc2)cc1` (racemic) [Example 30, rac-trans-1-(4-chlorophenyl)-3-(1-(3-hydroxypropanoyl)-4-(4-methoxyphenyl)piperidin-3-yl)urea], the EC50 on FPR2 and on FPR1 was below 1 nM throughout.

With `COc1cc(F)c([C@@H]2CC(=O)N(CCO)C[C@H]2NC(=O)Nc2ccc(Cl)cc2)c(F)c1` (racemic) [Example 31, rac-trans-1-(4-chlorophenyl)-3-(4-(2,6-difluoro-4-methoxyphenyl)-1-(2-hydroxyethyl)-6-oxopiperidin-3-yl)urea], the EC50 on FPR2 was below 1 nM; on FPR1, 1 to 1000 nM.

For `COc1ccc([C@@H]2CC(=O)N(CCO)C[C@H]2NC(=O)Nc2ccc(Cl)cc2)cc1` (racemic) [Example 32, rac-trans-1-(4-chlorophenyl)-3-(1-(2-hydroxyethyl)-4-(4-methoxyphenyl)-6-oxopiperidin-3-yl)urea], the EC50 is below 1 nM on FPR2 and 1 to 1000 nM at FPR1.

Take `COc1cc(F)c([C@@H]2CC(=O)NC[C@H]2NC(=O)Nc2ccc(Cl)s2)c(F)c1` (racemic) [Example 51, rac-trans-1-(5-chlorothiophen-2-yl)-3-(4-(2,6-difluoro-4-methoxyphenyl)-6-oxopiperidin-3-yl)urea]: the EC50 on FPR2 and at FPR1 was 1 to 1000 nM in each case.

For `COc1cc(F)c([C@@H]2CC(=O)NC[C@H]2NC(=O)Nc2csc(Cl)c2)c(F)c1` (racemic) [Example 52, rac-trans-1-(5-Chloro-thiophen-3-yl)-3-[4-(2,6-difluoro-4-methoxy-phenyl)-6-oxo-piperidin-3-yl]-urea], the EC50 is below 1 nM on FPR2 and 1 to 1000 nM at FPR1.

With `COc1cc(F)c([C@@H]2CC(=O)NC[C@H]2NC(=O)Nc2cc3ccccc3s2)c(F)c1` (racemic) [Example 53, rac-trans-1-(Benzo[b]thiophen-2-yl)-3-[4-(2,6-difluoro-4-methoxy-phenyl)-6-oxo-piperidin-3-yl]-urea], the EC50 on FPR2 and at FPR1 was 1 to 1000 nM in each case.

With `COc1cc(F)c([C@@H]2CC(=O)NC[C@H]2NC(=O)Nc2ccc(Oc3ccccc3)cc2)c(F)c1` (racemic) [Example 54, rac-trans-1-[4-(2,6-Difluoro-4-methoxy-phenyl)-6-oxo-piperidin-3-yl]-3-(4-phenoxy-phenyl)-urea], the EC50 on FPR2 was below 1 nM; at FPR1 it was 1 to 1000 nM.

As for `COc1cc(F)c([C@@H]2CC(=O)NC[C@H]2NC(=O)Nc2cc(C)ns2)c(F)c1` (racemic) [Example 55, rac-trans-1-[4-(2,6-Difluoro-4-methoxy-phenyl)-6-oxo-piperidin-3-yl]-3-(3-methyl-isothiazol-5-yl)-urea], the EC50 at FPR2 and at FPR1 was 1 to 1000 nM throughout.

With `COc1cc(F)c([C@@H]2CC(=O)NC[C@H]2NC(=O)Nc2ncc(Cl)s2)c(F)c1` (racemic) [Example 56, rac-trans-1-(5-Chloro-thiazol-2-yl)-3-[4-(2,6-difluoro-4-methoxy-phenyl)-6-oxo-piperidin-3-yl]-urea], the EC50 at FPR2 and at FPR1 was 1 to 1000 nM each time.

For `COc1cc(F)c([C@@H]2CC(=O)NC[C@H]2NC(=O)Nc2ccc(Cl)c(O)c2)c(F)c1` (racemic) [Example 57, rac-trans-1-(4-Chloro-3-hydroxy-phenyl)-3-[4-(2,6-difluoro-4-methoxy-phenyl)-6-oxo-piperidin-3-yl]-urea], the concentration giving a half-maximal response (EC50) is below 1 nM on FPR2 and 1 to 1000 nM on FPR1.

For `COc1cc(F)c([C@@H]2CC(=O)NC[C@H]2NC(=O)Nc2ccc(Cl)c(F)c2)c(F)c1` (racemic) [Example 58, rac-trans-1-(4-Chloro-3-fluoro-phenyl)-3-[4-(2,6-difluoro-4-methoxy-phenyl)-6-oxo-piperidin-3-yl]-urea], the EC50 at FPR2 and on FPR1 was 1 to 1000 nM in each case.

Take `CCc1cc(F)c([C@@H]2CC(=O)NC[C@H]2NC(=O)Nc2ccc(Cl)cc2)c(F)c1` (racemic) [Example 69, rac-trans-1-(4-chlorophenyl)-3-(4-(4-ethyl-2,6-difluorophenyl)-6-oxopiperidin-3-yl)urea]: the EC50 on FPR2 and at FPR1 was 1 to 1000 nM each time.

`O=C1C[C@@H](c2c(F)cc(OC(F)F)cc2F)[C@H](NC(=O)Nc2ccc(Cl)cc2)CN1` (racemic) [Example 70, rac-trans-1-(4-chlorophenyl)-3-(4-(4-(difluoromethoxy)-2,6-difluorophenyl)-6-oxopiperidin-3-yl)urea]: the half-maximal effective concentration (EC50) on FPR2 and on FPR1 was 1 to 1000 nM each time.

Turning to `CCc1ccc([C@@H]2CC(=O)NC[C@H]2NC(=O)Nc2ccc(Cl)cc2)cc1` (racemic) [Example 73, rac-trans-1-(4-chlorophenyl)-3-(4-(4-ethylphenyl)-6-oxopiperidin-3-yl)urea], the EC50 at FPR2 and at FPR1 was 1 to 1000 nM throughout.

Turning to `O=C1C[C@@H](c2ccc(OC(F)F)cc2)[C@H](NC(=O)Nc2ccc(Cl)cc2)CN1` (racemic) [Example 74, rac-trans-1-(4-chlorophenyl)-3-(4-(4-(difluoromethoxy)phenyl)-6-oxopiperidin-3-yl)urea], the half-maximal effective concentration (EC50) on FPR2 and at FPR1 was 1 to 1000 nM in each case.

Values taken from US10265310B2, “6-membered cyclic amines or lactames substituted with urea and phenyl” (GRÜNENTHAL GMBH, priority 2016, dated 2019).
